{"source": "patent US8624027B2", "about": "“Combination therapy for treating cancer and diagnostic assays for use therein” (AbbVie Inc., priority 2005, dated 2014)", "key": {"[1]": {"system": "HCT116 cells", "assay": "Cell viability of polyploid cells after ABT-263", "assay_type": "cell-based, human", "conditions": "cells made polyploid with 200 nM AZD1152 (with or without washout); 1 μM ABT-263 for 24 hours; not in diploid cells", "procedure": "(§1) Cell viability was determined 72 hours post-transfection. The red curve represents a synergistic combination. […] HCT116 cells (FIG. 10C-FIG. 10F) were treated for 24 hours with DMSO or 200 nM AZD1152. AZD1152 was then either left in the culture medium (AZD 1152) or washed out by replacing the medium with drug-free growth medium (AZD 1152 washout).\nGenerally, cells were seeded at >90% viability (as determined by trypan blue exclusion) into 96-well plates overnight, treated with compounds or siRNAs for indicated duration, and the overall cell viability was determined by measuring luminescence."}, "[2]": {"system": "HCT116 tumors", "assay": "HCT116 tumor xenograft in mice", "assay_type": "in vivo"}, "[3]": {"system": "HCT116 cells", "assay": "Caspase-3 activity in polyploid cells (Caspase-GLO 3/7)", "assay_type": "cell-based, human", "conditions": "cells made polyploid with 200 nM AZD1152 (with or without washout); 1 μM ABT-263 for 4 hours; not in diploid cells", "procedure": "as §1\nCaspase-3 activity was determined using the Caspase-GLO 3/7 Assay (Promega) in tandem with the CellTiter-GLO viability assay (Promega). Parallel experiments were performed, where in one experiment Caspase-3/7 activity was measured and in the other, cell viability was determined. As Caspase-3/7 activity on a per cell basis reflects both the specific activity of the Caspase-3 enzyme and the number of viable cells, the data are expressed as Caspase-3/7 activity divided by cell viability."}}}
{"smiles": "CC1(C)CCC(c2ccc(Cl)cc2)=C(CN2CCN(c3ccc(C(=O)NS(=O)(=O)c4ccc(N[C@H](CCN5CCOCC5)CSc5ccccc5)c(S(=O)(=O)C(F)(F)F)c4)cc3)CC2)C1", "note": "[Example 1, N-(4-(4-((2-(4-chlorophenyl)-5,5-dimethyl-1-cyclohex-1-en-1-yl)methyl)piperazin-1-yl)benzoyl)-4-(((1R)-3-(morpholin-4-yl)-1-((phenylsulfanyl)methyl)propyl)amino)-3-((trifluoromethyl)sulfonyl)benzenesulfonamide]", "values": [{"measurement": "cell viability of polyploid cells", "setting": "[1]", "result": "loss of viability"}, {"measurement": "time to detection of active BAX conformer in tumors", "setting": "[2]; ABT-263 75 mkd PO in tumors from mice pretreated 3 days with AZD1152, not in naive tumors", "result": "≤ 4", "unit": "h"}, {"measurement": "persistence of tumor regression, combination regimen of AZD1152/ABT-263", "setting": "[2]; HCT116 colon carcinoma model", "result": "at least 2 weeks"}, {"measurement": "antitumor efficacy, combination regimen of AZD1152/ABT-263", "setting": "[2]; HCT116 colon carcinoma model, tumors ~0.5 gram", "result": "rapid and more sustained tumor regression"}, {"measurement": "Caspase-3 activity in polyploid cells", "setting": "[3]", "result": "induced Caspase-3 activity"}]}
